From patent US20100137266A1, “TREATMENT OF INSULIN RESISTANCE AND DISORDERS ASSOCIATED THEREWITH” (UNIVERSITETET I OSLO, priority 2006, published 2010)

Tested on: MyoD and myogenin
Test: Expression of MyoD and myogenin and differentiation of myoblasts into myotubes
Assay type: cell-based, human
Method: FIG. 1. Expression of MyoD (A) and myogenin (B) during differentiation of myoblasts. During the differentiation process, cells were harvested on day-2 until day 8. Some cell cultures were treated with ±1 μM T0901317 from day 2 until day 6. Equal amount of total RNA from each donor (n=4) were pooled, reversely transcribed and analyzed by Real-Time RT-PCR. Expression of MyoD and myogenin was normalized to GAPDH. RNA isolation and analysis of gene expression by RT-PCR. Myotubes were washed, trypsinized and pelleted before total RNA was isolated by RNeasy Mini kit (Qiagen Sciences, Oslo, Norway) or Agilent Total RNA Mini kit (Matrix, Oslo, Norway) according to the suppliers total RNA isolation protocol. […] DNA expression was determined by SYBR® Green (Applied Biosystems), and primers [36B4 (Acc#M17885), ACSL1 (Acc#NM-001995), ABCA1 (Acc#AF165281), CD36 (Acc#L06850), FAS (Acc#U26644), GAPDH (Acc#J104038/M33197, GLUT4 (Acc#M20747), LXRα (Acc#U22662), LXR (Acc#U07132), Myogenin (Acc#X17651), MyoD (Acc#BC064493), PPARα (Acc#L02932), PPARδ (Acc#BC002715), PPARγ (Acc#L40904), SCD-1 (Acc#AB032261), SREBP1c (Acc#U00968)], GLUT1, (Acc#03195), GLUT3 ([…]) were designed using Primer Express® (Applied Biosystems). Each target gene was quantified in triplicates and carried out in a 25 μl reaction volume according to the suppliers protocol. […]

O=S(=O)(c1ccccc1)N(CC(F)(F)F)c1ccc(C(O)(C(F)(F)F)C(F)(F)F)cc1 [Example T0901317]
expression levels of MyoD and myogenin (1 μM from day 2 until day 6): did not seem to interfere | differentiation of myoblasts into multinucleated myotubes by light microscopy (with and without LXR agonist treatment, data not shown): normal differentiation
